From PMC4147338, “Host defense peptides for treatment of colorectal carcinoma – a comparative in vitro and in vivo analysis” (Oncotarget, 2014)

Columns and labels:
Assay type in all cases: cell-based, human
HROC24 cells [1] = assay: Apoptosis/necrosis assay, YO-PRO-1/PI flow cytometry; details: for Levels of viable HROC24 cells: 24h, higher concentrations
Procedure: (§1) Figure 5 Apoptosis/necrosis assay and Western blot analysis (A, B) HROC18 and HROC24 cells were exposed to increasing HDP concentrations for a period of 24 hours. Tumor cells were stained with YO-PRO-1 for detecting early and late apoptotic tumor cells. Prior to flow cytometric analysis, PI was added to detect necrotic cells, as well. (A) Representative dot plots showing HDP-treated HROC24 cells at a concentration of 5 μM. Lower right quadrant: early apoptotic cells; upper right quadrant: late apoptotic cells; upper left quadrant: necrotic cells. (B) For cell death quantification, values of background cell death (=untreated controls) were subtracted from values of HDP-treated cells. Left panel: HROC24 cell; right panel: HROC18 cells. (C, E) Representative western blot results showing HDP-treated HROC24 cells (20 μg of total protein per lane). (D, F) Quantitative analysis of BAX and HSP90 expression in HDP-treated cells was done as described in material & methods. Expression levels of untreated cells were set to be =1 and x-fold increases of HDP-exposed cells were calculated. […] Values are given as mean ± SD.
(§2) Cell death was quantified by YO-PRO-1 (Invitrogen) and PI double staining. Selected tumor cells (HROC24 and HROC18, 1 × 10^4 cells/well) were seeded in 24-well plates and incubated overnight. Thereafter, peptides were added in increasing concentrations (ranging from 0.25 μM – 12.5 μM). Untreated cells served as living control. Following a 24-hour incubation period, supernatants were collected; cells were trypsinized and washed in PBS. Cells were stained with YO-PRO-1 (final concentration: 0.2 μM) for 20 min at room temperature. Prior to flow cytometric analysis, PI was added at a final concentration of 100 μg/ml. For cell death quantification, values of background cell death (=untreated controls) were subtracted from values of HDP-treated cells.

HROC18 cells = assay: as above; details: HROC18, 24h; for total killing: background cell death subtracted
Procedure: as §1, §2

HROC24 cells [2] = assay: Calcein-AM cell viability staining, 24h; details: HROC24, 24h, 0.25-12.5 μM
Procedure: (§3) Figure 4 HDP-mediated cytotoxicity towards tumor cells Quantitative analysis of direct cytotoxicity towards tumor cells following a 24h incubation period with increasing HDP concentrations. Viability was assessed using Calcein-AM staining. Remaining viable tumor cells were quantified in comparison to untreated controls, which were set to be =1. […] Values are given as the mean x-fold increase ± SD. *p<0.05 vs. NK11; **p<0.01 vs. NK11.
(§4) This assay is based on Calcein-acetoxymethylester (Calcein-AM; Invitrogen, Darmstadt, Germany) staining to detect viable cells within a culture. Tumor and normal (PBL) cells (1-2 × 10^4 cells/well in triplicates) were seeded in 96-well plates and incubated overnight. Thereafter, peptides were added in increasing concentrations (ranging from 0.25 μM – 12.5 μM). Untreated cells served as living cell control. Medium was removed after 1h or 24h, respectively. Calcein-AM ([…]) was added and incubated for 30 min (37°C, 5% CO2). Analysis was performed on a fluorescence multi-well plate reader (Tecan Infinite® M200, Crailsheim, Germany) at an excitation wavelength of 485 nm (emission 535 nm). For estimation of cell viability, the relative fluorescence intensities of Calcein-AM-stained non-treated cells (=live control) were set to be 1, and fluorescence intensities of samples were calculated. Data of at least three independent experiments each performed in […] are given.

HROC60 cells = assay: Calcein-AM cell viability staining, 24h; details: HROC60, 24h
Procedure: as §3, §4

HROC113 cells = assay: Calcein-AM cell viability staining, 24h; details: HROC113, 24h, 0.25-12.5 μM
Procedure: as §3, §4

HROC107 cells = assay: Calcein-AM cell viability staining, 24h; details: HROC107, 24h, 0.25-12.5 μM
Procedure: as §3, §4

HCT116 cells = assay: Calcein-AM cell viability staining, 24h; details: HCT116, 24h, 0.25-12.5 μM
Procedure: as §3, §4

[3] = tested on: peripheral blood lymphocytes (PBL); assay: Lymphotoxicity, Calcein-AM viability of PBL; details: PBL of six healthy donors, 24h, 0.25-12.5 μM
Procedure: Figure 6 Hemolysis and lymphotoxicity assays (A) Hemolytic activity of HDPs was determined by hemoglobin release from whole blood cells after 120 min incubation. Negative controls were left untreated whereas positive controls (=maximum lysis) were treated with 1% SDS. Hemolytic activity was quantified as described in the material and methods section. (B) PBLs were incubated in the presence of increasing HDP concentrations for a period of 24 hours. Viability was analyzed using Calcein-AM and quantified in comparison to untreated controls, which were set to be =1. […] Experiments were performed in triplicates. Values are given as the mean x-fold increase ± SD.
CRC cell lines HROC18, HROC24, HROC32, HROC40, HROC57, HROC60, HROC69, HROC80, HROC87, HROC107, and HROC113 were established in our lab from patients subsequent to surgical resection. […]
(§5) This assay is based on Calcein-acetoxymethylester (Calcein-AM; Invitrogen, Darmstadt, Germany) staining to detect viable cells within a culture. […] Analysis was performed on a fluorescence multi-well plate reader (Tecan Infinite® M200, Crailsheim, Germany) at an excitation wavelength of 485 nm (emission 535 nm). For estimation of cell viability, the relative fluorescence intensities of Calcein-AM-stained non-treated cells (=live control) were set to be 1, and fluorescence intensities of samples were calculated. […]

CRC tumor cell lines = assay: Calcein-AM cell viability staining, short-term exposure (1h); details: 0.25-12.5 μM, three separate experiments
Procedure: According to our classification, we included three PS^high (HCT116, HROC18, and HROC24), three PS^int (HROC40, HROC60, and HROC113), and two PS^low (HROC32 and HROC107) surface-exposed cell lines.
Figure 3 Short-term exposure of HDPs towards tumor cells (A) Representative pictures showing morphological changes in HROC24 cells upon HDP C7A-D21K exposure (25 μM). As a control, HROC24 cells were treated with NK11 (25 μM). (B) Quantitative analysis of direct cytotoxicity towards tumor cells. Tumor cells were treated for 1h with increasing HDP concentrations. Thereafter, viability was assessed using Calcein-AM staining. Remaining viable tumor cells were quantified in comparison to untreated controls, which were set to be =1. […] Values are given as the mean x-fold increase ± SD, *p<0.05 vs. NK11; **p<0.01 vs. NK11.
as §5

Question: Which results are given for “KILRGVAKKIMRTFLRRISKKILTGKK [Peptide C7A-D21K, C7A with Asp21 substituted by Lys]”?
Answer: Levels of viable HROC24 cells (HROC24 cells [1]): 17%; Tumor killing compared with Melittin (HROC24 cells [1]; HROC24, 24h): as effective in tumor killing as Melittin; Tumor killing, ranking (HROC18 cells): the most effective one and even slightly better than Melittin; total killing (HROC18 cells): 74%; Lytic activity towards tumor cells (HROC24 cells [2]): as effective as the reference compound Mellitin; lysis vs. control (HROC60 cells): > 40%; Killing of tumor cells / viability (HROC113 cells): most effective in killing these tumor cells; Killing of tumor cells / viability (HROC107 cells): most effective in killing these tumor cells; Lytic activity towards tumor cells (HCT116 cells): as effective as the reference compound Mellitin

Question: “KISKRILTGKK [NK11, non-toxic control peptide based on NK-2, reference compound]” was tested. Which Lymphocyte viability [3] did it give?
Answer: Its Lymphocyte viability is “did not affect lymphocyte viability”.

Question: And the “Direct cytotoxicity / tumor cell lysis after short-term exposure” value (CRC tumor cell lines)?
Answer: Its value is “lack of NK11-mediated tumor cell lysis”.

Question: With “KILRGVAKKIMRTFLRRISKDILTGKK [Peptide C7A, NK-2 derivative, Cys7 replaced with Ala]” as the sequence, how does the “Levels of viable HROC24 cells” value (HROC24 cells [1]) read?
Answer: The value was 25%.

Question: And the total killing (HROC18 cells)?
Answer: The total killing was “up to 60%”.

Question: And the “Lytic activity towards tumor cells” value (HROC24 cells [2])?
Answer: Its value is “as effective as the reference compound Mellitin”.

Question: And the “Lytic activity towards tumor cells” value (HCT116 cells)?
Answer: The value was “as effective as the reference compound Mellitin”.
